Where two headings read alike, the source gives them in different places.
Legend:
[1] = Plasma free fraction (fu) and unbound Cmax (Cmax,u); type: in vitro ADME, human; conditions: unbound plasma Cmax
Experimental: The prediction of DILI severity was evaluated further using the 3D combined HCI assays using plasma-free fraction. The majority of fu values were obtained from literature, when unavailable in-house prediction was utilised. Unbound plasma Cmax concentrations (Cmax,u) were derived by multiplying total plasma Cmax with the corresponding free fraction (fu) for each compound.

[2] = cited from earlier work
[3] = system: primary human hepatocytes, NIH3T3 fibroblasts, BSEP, CYP3A4; conditions: cited from earlier work
HepG2 cells [4] = conditions: cited from earlier work
HepG2 cells [5] = conditions: cited from earlier work; remark: listed apart in the source
HepG2 cells [6] = conditions: In vitro Assay; ref Tolosa 2012; cited from earlier work
human hepatocytes = conditions: cited from earlier work
[7] = system: THLE or HepG2 cells, isolated mitochondria, BSEP; conditions: cited from earlier work
PHH = conditions: cited from earlier work
hLiMTs [8] = conditions: cited from earlier work
PHH spheroids = conditions: cited from earlier work
[9] = system: HepG2 C3A spheroid, BSEP, Glu/Gal in HepG2 cells, bioactivation; conditions: cited from earlier work
[10] = read-out: Human plasma Cmax; total plasma Cmax.tot, median of 9 literature references; cited from earlier work
[11] = plasma free fraction; cited from earlier work
[12] = cited from earlier work; remark: listed apart in the source
[13] = system: THLE-Null and THLE-3A4 cells; conditions: In vitro Assay; ref Gustafsson 2014; cited from earlier work
[14] = system: HepG2 cells, primary human hepatocytes; conditions: In vitro Assay; ref Garside 2014; cited from earlier work
Upcyte human hepatocytes = conditions: In vitro Assay; ref Tolosa 2019; cited from earlier work
[15] = ref Chen 2011; cited from earlier work
rBsep = conditions: In vitro Assay; ref Dawson 2012; cited from earlier work
hLiMTs [16] = assay: Combined HCI (HCS) and cellular ATP 3D assay in hLiMTs
HepaRG spheroids = assay: Combined HCI (HCS) and cellular ATP 3D assay in HepaRG spheroids; conditions: for AC50 / minimal effective concentration: Homo sapiens
[17] = In vitro Assay, ref Schadt 2015
[18] = In vitro Assay, ref Persson 2013
[19] = Modeled in vitro assays (cytotoxicity, mitochondrial dysfunction, BSEP), ref Aleo et al. 2019
[20] = In vitro Assay, ref Proctor 2017
[21] = Microtissue model structural based (HCI), combined HCS and ATP, MEC < 25 × Cmax.tot cut-off

SMILES: CN(Cc1cnc2nc(N)nc(N)c2n1)c1ccc(C(=O)N[C@@H](CCC(=O)O)C(=O)O)cc1 [methotrexate, reference compound]
- Human plasma Cmax,u [1]: 2.315 µM
- DILI severity category (Chen et al. [2016]) ([2]; LTKB DILIrank category, ref Chen et al. 2016): Most
- DILI severity category (Chen 2016) ([2]; human DILI classification, LTKB DILIrank, ref Chen et al. 2016): Most
- DILI severity category ([2]; human DILI severity, ref Chen et al.): Most
- DILI +VE (5-8), DILI -VE (-4) ([2]; ref Chen 2016): +VE
- DILI severity category ([2]; ref Chen 2016): vMost-DILI-Concern
- DILI in vitro assay prediction, Schadt (2015) ([3]; BSEP & Metabolism based, ref Schadt et al. 2015): -VE
- Cellular toxicity (3T3 cells) [3, 17]: -VE
- GSH adduct HML [3, 17]: -VE
- Hepatocyte cellular toxicity [3, 17]: -VE
- MitoTox 3T3 [3, 17]: -VE
- TDI CYP3A4 [3, 17]: -VE
- hBSEP inhibition [3, 17]: -VE
- Structural based (HCI) (HepG2 cells [4]; In vitro Assay, ref O'Brien 2006): +VE
- DILI in vitro assay prediction, O'Brien (2006) (HepG2 cells [4]; Structural based (HCI), HepG2, ref O'Brien et al. 2006): +VE (lowest HCI endpoint IC50 (or in the absence of dose–response < 100 µM) < 30 × total human plasma exposure levels (Cmax.tot))
- Cluser analysis (HepG2 cells [5]; [18]): -VE
- Structural based (HCI) (HepG2 cells [5]; [18]): -VE
- DILI in vitro assay prediction, Persson (2013) (HepG2 cells [5]; Structural based (HCI), HepG2, ref Persson et al. 2013): -VE
- Structural based (HCI) (HepG2 cells [6]): +VE
- Structural based (HCI) (human hepatocytes; In vitro Assay, ref Xu 2008): -VE
- DILI in vitro assay prediction, Xu (2008) (human hepatocytes; Structural based (HCI), human hepatocytes, ref Xu et al. 2008): -VE
- Partition Hybrid HRM Score ([7]; In vitro Assay, ref Aleo 2019): +VE
- Ro2 Hybrid HRM Score ([7]; In vitro Assay, ref Aleo 2019): +VE
- Partition Hybrid HRM Score ≥4, Aleo (2019) [7, 19]: +VE (Partition Hybrid HRM Score ≥4)
- Partition Hybrid HRM Score ≥8, Aleo (2019) [7, 19]: -VE
- Rule of Two hybrid HRM Score ≥3, Aleo (2019) [7, 19]: +VE (Rule of Two hybrid HRM Score ≥3)
- Rule of Two hybrid HRM Score ≥8, Aleo (2019) [7, 19]: -VE
- PHH/100uM, Proctor (2017) (PHH; 2D PHH, ATP, IC50 threshold 100 µM, ref Proctor et al. 2017): -VE
- PHH ATP <100uM (PHH; [20]): -VE
- hLiMTs ATP <100uM (hLiMTs [8]; [20]): -VE
- hLiMTs/100uM, Proctor (2017) (hLiMTs [8]; hLiMTs, ATP, IC50 threshold 100 µM, ref Proctor et al. 2017): -VE
- hLiMTs ATP <20 x Cmax (PHH spheroids; In vitro Assay, ref Vorrink 2018): +VE (IC20 < 20 × Cmax.tot cut-off)
- DILI in vitro assay prediction, Vorrink (2018) (PHH spheroids; PHH spheroids, ATP, 14 days, IC20 < 20 × Cmax.tot, ref Vorrink et al. 2018): +VE (IC20 < 20 × Cmax.tot cut-off)
- Bayesian Machine Learning DILI prediction, Williams (2019) ([9]; Bayesian modeling, ref Williams et al. 2019): +VE
- Bayesian Machine Learning ([9]; In vitro Assay, ref Williams 2019): +VE
- Cmax [10]: 4.63 µM
- fu [11]: 0.500
- Assigned DILI category ([12]; Chen et al. 2016 or literature alignment, ref Chen et al. 2016): 3
- In vivo DILI ([12]; […]): +VE
- In vivo DILI ([12]; ref Aleo 2019): +VE
- In vivo DILI ([12]; ref Dawson 2012): +VE
- In vivo DILI ([12]; ref Garside 2014): +VE
- In vivo DILI ([12]; ref Gustafsson 2014): +VE
- In vivo DILI ([12]; ref O'Brien 2006): +VE
- In vivo DILI ([12]; ref Persson 2013): +VE
- In vivo DILI ([12]; ref Proctor 2017): +VE
- In vivo DILI ([12]; ref Schadt 2015): +VE
- In vivo DILI ([12]; ref Tolosa 2012): +VE
- In vivo DILI ([12]; ref Tolosa 2019): +VE
- In vivo DILI ([12]; ref Vorrink 2018): +VE
- In vivo DILI ([12]; ref Williams 2019): +VE
- In vivo DILI ([12]; ref Xu 2008): +VE
- THLE-Null [13]: -VE
- Cluster 1-6 +VE Assay [14]: -VE
- Upcytes multi donor assay 14day data (Upcyte human hepatocytes): +VE
- DILI Score (FDA) (1-8) [15]: 3
- Inhibition of rBsep cutoff<1& cmax u>.2 (rBsep): -VE
- Inhibition of rBsep cutoff<3 (rBsep): -VE
- DILI prediction hLiMTs, HCI alone (hLiMTs [16]; HCS endpoints only, 25 × Cmax.tot cut-off): detection
- AC50 (hLiMTs [16]; Homo sapiens, read-out: HCS endpoint AC50): 16900 nM
- minimal effective concentration (hLiMTs [16]; Homo sapiens, read-out: HCS endpoint MEC): 0.703 µM
- DILI prediction hLiMTs (HCS-MEC) (hLiMTs [16]; [21]): +VE (MEC < 25 × Cmax.tot cut-off)
- DILI prediction hLiMTs, ATP alone (hLiMTs [16]; cellular ATP only, 25 × Cmax.tot cut-off): unpredicted
- hLiMTs <25x Avg Cmax ATP (hLiMTs [16]; hLiMTs, ATP endpoint, cut-off <25x Avg Cmax): -ve
- hLiMTs <100x Avg Cmaxu ATP (hLiMTs [16]; hLiMTs, ATP endpoint, cut-off <100x Avg Cmaxu): -ve
- hLiMTs <25x Avg Cmax HCS (hLiMTs [16]; hLiMTs, HCS endpoints, cut-off <25x Avg Cmax): +ve
- hLiMTs <100x Avg Cmaxu HCS (hLiMTs [16]; hLiMTs, HCS endpoints, cut-off <100x Avg Cmaxu): +ve (<100x Avg Cmaxu)
- hLiMTs <25x Avg Cmax All (hLiMTs [16]; hLiMTs, all endpoints (ATP and HCS), cut-off <25x Avg Cmax): +ve
- hLiMTs Cmax max All (hLiMTs [16]; hLiMTs, all endpoints, Cmax max used): +ve
- hLiMTs Cmax min All (hLiMTs [16]; hLiMTs, all endpoints, Cmax min used): -ve
- hLiMTs <10 uM All (hLiMTs [16]; hLiMTs, all endpoints, cut-off <10 uM): +ve (<10 uM)
- hLiMTs <100x Avg Cmaxu All (hLiMTs [16]; hLiMTs, all endpoints, cut-off <100x Avg Cmaxu): +ve (<100x Avg Cmaxu)
- HepaRG <25x Avg Cmax ATP (HepaRG spheroids; HepaRG, ATP endpoint, cut-off <25x Avg Cmax): +ve
- HepaRG <100x Avg Cmaxu ATP (HepaRG spheroids; HepaRG, ATP endpoint, cut-off <100x Avg Cmaxu): +ve (<100x Avg Cmaxu)
- HepaRG <25x Avg Cmax HCS (HepaRG spheroids; HepaRG, HCS endpoints, cut-off <25x Avg Cmax): +ve
- HepaRG <100x Avg Cmaxu HCS (HepaRG spheroids; HepaRG, HCS endpoints, cut-off <100x Avg Cmaxu): +ve (<100x Avg Cmaxu)
- HepaRG <25x Avg Cmax All (HepaRG spheroids; HepaRG, all endpoints (ATP and HCS), cut-off <25x Avg Cmax): +ve
- HepaRG Cmax max All (HepaRG spheroids; HepaRG, all endpoints, Cmax max used): +ve
- HepaRG Cmax min All (HepaRG spheroids; HepaRG, all endpoints, Cmax min used): +ve
- HepaRG <10 uM All (HepaRG spheroids; HepaRG, all endpoints, cut-off <10 uM): +ve (<10 uM)
- HepaRG <100x Avg Cmaxu All (HepaRG spheroids; HepaRG, all endpoints, cut-off <100x Avg Cmaxu): +ve (<100x Avg Cmaxu)
- AC50 (HepaRG spheroids; HepaRG, read-out: ATP endpoint AC50): 200 nM
- minimal effective concentration (HepaRG spheroids; HepaRG, read-out: ATP endpoint MEC): 0.2 µM
- AC50 (HepaRG spheroids; HepaRG, read-out: HCS endpoint AC50): 200 nM
- minimal effective concentration (HepaRG spheroids; HepaRG, read-out: HCS endpoint MEC): 0.2 µM
- DILI prediction HepaRG spheroids (HCS-MEC) (HepaRG spheroids; [21]): +VE (MEC < 25 × Cmax.tot cut-off)
